Laboratory results as given in PubChem BioAssay AID248 (DTP/NCI, 2004).
Values joined by “and” are separate entries in the source; they are usually repeats but may differ in a detail not shown here. Equal entries are not always repeated. Inconclusive results and toxic doses are left out. Rule as the data show it: active = T/C of 150% or more; inactive = T/C below 125%.

Test system: L1210 leukemia ip in BDF1 mice, survival T/C
Assay: NCI In Vivo Anticancer Drug Screen. Data for tumor model L1210 Leukemia (intraperitoneal) in B6D2F1 (BDF1) mice
Conditions: endpoint: mean survival time, higher = longer survival
In short: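 Value reflects the ratio of survival in compound-treated mice to survival in vehicle-treated controls, with both groups carrying the same transplanted tumor.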

[1] = dose: 100.0 mg/kg/injection, schedule: Q04DX003 (ip), vehicle: saline
[2] = dose: 200.0 mg/kg/injection, schedule: Q04DX003 (ip), vehicle: saline
[3] = dose: 400.0 mg/kg/injection, schedule: Q04DX003 (ip), vehicle: saline
[4] = dose: 50.0 mg/kg/injection, schedule: Q04DX003 (ip), vehicle: saline
[5] = dose: 100.0 mg/kg/injection, schedule: Q01DX001 (ip), vehicle: saline
[6] = dose: 100.0 mg/kg/injection, schedule: Q01DX001 (ip), vehicle: carboxymethylcellulose (CMC)
[7] = dose: 200.0 mg/kg/injection, schedule: Q01DX001 (ip), vehicle: carboxymethylcellulose (CMC)
[8] = dose: 400.0 mg/kg/injection, schedule: Q01DX001 (ip), vehicle: carboxymethylcellulose (CMC)
[9] = dose: 50.0 mg/kg/injection, schedule: Q01DX009 (ip), vehicle: Klucel (hydroxypropylcellulose) (HPC)
[10] = dose: 100.0 mg/kg/injection, schedule: Q01DX009 (ip), vehicle: Klucel (hydroxypropylcellulose) (HPC)
[11] = dose: 100.0 mg/kg/injection, schedule: Q04DX003 (ip), vehicle: Klucel (hydroxypropylcellulose) (HPC)
[12] = dose: 200.0 mg/kg/injection, schedule: Q01DX009 (ip), vehicle: Klucel (hydroxypropylcellulose) (HPC)
[13] = dose: 200.0 mg/kg/injection, schedule: Q04DX003 (ip), vehicle: Klucel (hydroxypropylcellulose) (HPC)
[14] = dose: 100.0 mg/kg/injection, schedule: Q01DX009 (ip), vehicle: saline
[15] = dose: 200.0 mg/kg/injection, schedule: Q01DX009 (ip), vehicle: saline
[16] = dose: 400.0 mg/kg/injection, schedule: Q01DX009 (ip), vehicle: saline
[17] = dose: 200.0 mg/kg/injection, schedule: Q01DX001 (ip), vehicle: saline
[18] = dose: 400.0 mg/kg/injection, schedule: Q01DX001 (ip), vehicle: saline
[19] = dose: 100.0 mg/kg/injection, schedule: Q01DX009 (ip), vehicle: saline with Tween-80
[20] = dose: 200.0 mg/kg/injection, schedule: Q01DX009 (ip), vehicle: saline with Tween-80

Measured: T/C

CCCCNC(C)[C@]1(O)Cc2c(O)c3c(c(O)c2[C@@H](OC2CC(N)C(O)C(C)O2)C1)C(=O)c1c(OC)cccc1C3=O (stereo partly drawn)
inactive: dose: 1.56 mg/kg/injection, schedule: Q01DX009 (ip), vehicle: water 104 % of control | dose: 3.13 mg/kg/injection, schedule: Q01DX009 (ip), vehicle: water 119 % of control | dose: 6.25 mg/kg/injection, schedule: Q01DX009 (ip), vehicle: water 117 % of control

CC(O)(C(=O)O)c1ccccc1 (stereo not drawn)
inactive: dose: 75.0 mg/kg/injection, schedule: Q01DX009 (ip), vehicle: other 99 % of control | [1] 100 % of control | dose: 150.0 mg/kg/injection, schedule: Q01DX009 (ip), vehicle: other 94 % of control | [2] 105 % of control | dose: 300.0 mg/kg/injection, schedule: Q01DX009 (ip), vehicle: other 100 % of control | [3] 91 % of control

Cc1ccc(CNC(=O)Nc2ccccc2)c(C)c1
inactive: dose: 100.0 mg/kg/injection, schedule: Q01DX009 (ip), vehicle: other 103 % of control | dose: 200.0 mg/kg/injection, schedule: Q01DX009 (ip), vehicle: other 91 % of control | dose: 400.0 mg/kg/injection, schedule: Q01DX009 (ip), vehicle: other 101 % of control

O=C(O)C(O)C(Br)C(=O)O (stereo not drawn)
inactive: [4] 95 % of control | [5] 95 % of control | [1] 104 % of control

COc1c(OC)c(OC)c2c(c1OC)c(=O)c1ccccc1n2C
inactive: dose: 50.0 mg/kg/injection, schedule: Q01DX001 (ip), vehicle: carboxymethylcellulose (CMC) 93 % of control | [6] 102 % of control | [7] 96 % of control | [8] 98 % of control

COc1cccc(OC)c1C#N
inactive: [9] 95 % of control | [10] 96 % of control | [11] 98 % of control | [12] 95 % of control | [13] 98 % of control

CCOC(=O)CCCC(=O)c1ccc(OC)c(OC)c1
inactive: [6] 100 % of control | [7] 102 % of control | [8] 100 % of control

CCCCNC(=O)C1C2CC3OC(=O)C1C3C2 (stereo not drawn)
inactive: dose: 12.5 mg/kg/injection, schedule: Q04DX003 (ip), vehicle: saline 89 % of control | dose: 25.0 mg/kg/injection, schedule: Q04DX003 (ip), vehicle: saline 95 % of control | [4] 100 % of control | [1] 95 % of control | [2] 98 % of control | [3] 101 % of control

CC1CN(c2ccc([N+](=O)[O-])cc2)C(C)CN1N=O (stereo not drawn)
inactive: dose: 25.0 mg/kg/injection, schedule: Q01DX009 (ip), vehicle: saline 106 % of control | dose: 50.0 mg/kg/injection, schedule: Q01DX009 (ip), vehicle: saline 104 % of control | [14] 98 % of control | [15] 97 % of control | [16] 95 % of control

CC1=NN(c2ccccc2)C(=O)C1N=Nc1ccc(S(=O)(=O)Nc2nccs2)cc1 (stereo not drawn)
inactive: [5] 96 % of control | [17] 91 % of control | [18] 91 % of control

COC(CN(C)C(=O)NC1CCCCC1)OC
inactive: [19] 102 % of control | [20] 100 % of control

CN1C(=O)NC(=O)C12CCNCC2
inactive: [5] 97 % of control | [17] 103 % of control | [18] 101 % of control

COC1OC(COS(=O)(=O)c2ccc(C)cc2)C2OC(C)(C)OC12 (stereo not drawn)
inactive: [9] 107 % of control | dose: 50.0 mg/kg/injection, schedule: Q04DX003 (ip), vehicle: Klucel (hydroxypropylcellulose) (HPC) 92 % of control | [10] 95 % of control | [14] 96 % of control | [11] 92 % of control and 94 % of control | [12] 104 % of control | [15] 91 % of control | [13] 92 % of control and 91 % of control | dose: 400.0 mg/kg/injection, schedule: Q01DX009 (ip), vehicle: Klucel (hydroxypropylcellulose) (HPC) 96 % of control | [16] 91 % of control | dose: 400.0 mg/kg/injection, schedule: Q04DX003 (ip), vehicle: Klucel (hydroxypropylcellulose) (HPC) 105 % of control and 91 % of control

O=C1/C(=C2\CCCc3ccc(Cl)cc32)CCc2ccc(Cl)cc21
inactive: [19] 100 % of control | [20] 97 % of control | dose: 400.0 mg/kg/injection, schedule: Q01DX009 (ip), vehicle: saline with Tween-80 96 % of control

O=C(NNc1c(Cl)cc(Cl)cc1Cl)C(O)C(O)C(O)C(O)CO (stereo not drawn)
inactive: [1] 91 % of control | [2] 87 % of control | [3] 87 % of control
